Data published in PubChem BioAssay AID2060493 (Molecular Pharmacology Branch, DTP, NCI, 2025).

System: 616215-338-R-J1-PDC tumor spheroids, viability
Assay: Anticancer human tumor 616215-338-R-J1-PDC patient-derived colon adenocarcinoma cell line growth inhibition [GQUAD]
Conditions: spheroids with HUVEC and MSC; for IC50: curve of first compound; for viability, T/C: stronger effect = lower value
In short: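 Tumor cells were grown as complex spheroids with HUVEC endothelial cells and mesenchymal stem cells as stroma. G-quadruplex stabilizers were combined with targeted agents over half-log dilutions from near the clinical Cmax, or from 10 microM.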

[1] = second compound 0.0316 µM, first compound 0.0316 µM
[2] = second compound 0.0316 µM, first compound 0.316 µM
[3] = second compound 0.1 µM, first compound 0.0316 µM
[4] = second compound 0.1 µM, first compound 0.316 µM
[5] = second compound 0.316 µM, first compound 0.0316 µM
[6] = second compound 0.316 µM, first compound 0.316 µM
[7] = second compound 1 µM, first compound 0.0316 µM
[8] = second compound 1 µM, first compound 0.316 µM
[9] = second compound 3.16 µM, first compound 0.0316 µM
[10] = second compound 3.16 µM, first compound 0.316 µM
[11] = second compound 10 µM, first compound 0.0316 µM
[12] = second compound 10 µM, first compound 0.316 µM
[13] = second compound 0.0316 µM, first compound 0.1 µM
[14] = second compound 0.0316 µM, first compound 1 µM
[15] = second compound 0.0316 µM, first compound 3.16 µM
[16] = second compound 0.0316 µM, first compound 10 µM
[17] = second compound 0.1 µM, first compound 0.1 µM
[18] = second compound 0.1 µM, first compound 1 µM
[19] = second compound 0.1 µM, first compound 3.16 µM
[20] = second compound 0.1 µM, first compound 10 µM
[21] = second compound 0.316 µM, first compound 0.1 µM
[22] = second compound 0.316 µM, first compound 1 µM
[23] = second compound 0.316 µM, first compound 3.16 µM
[24] = second compound 0.316 µM, first compound 10 µM
[25] = second compound 1 µM, first compound 0.1 µM
[26] = second compound 1 µM, first compound 1 µM
[27] = second compound 1 µM, first compound 3.16 µM
[28] = second compound 1 µM, first compound 10 µM
[29] = second compound 3.16 µM, first compound 0.1 µM
[30] = second compound 3.16 µM, first compound 1 µM
[31] = second compound 3.16 µM, first compound 3.16 µM
[32] = second compound 3.16 µM, first compound 10 µM
[33] = second compound 10 µM, first compound 0.1 µM
[34] = second compound 10 µM, first compound 1 µM
[35] = second compound 10 µM, first compound 3.16 µM
[36] = second compound 10 µM, first compound 10 µM
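Also: spheroids exposed to agents for 7 days before readout.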
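For viability, T/C in this document: percent viability relative to DMSO vehicle control wells taken as 100%.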

Question: What does the source list for `Cn1ncnc1[C@H]1c2n[nH]c(=O)c3cc(F)cc(c23)N[C@@H]1c1ccc(F)cc1` + CN(C)c1ccc(Nc2c3ccc(NC(=O)CCN4CCCC4)cc3nc3cc(NC(=O)CCN4CCCC4)ccc23)cc1?
Answer: IC50 (second compound 0.0316 µM): > 316 nM; IC50 (second compound 0.1 µM): > 316 nM; IC50 (second compound 0.316 µM): > 316 nM; IC50 (second compound 1 µM): > 316 nM; IC50 (second compound 3.16 µM): > 316 nM; IC50 (second compound 10 µM): > 316 nM; viability, T/C (second compound 0.0316 µM, first compound 0.000999 µM): 103%; viability, T/C (second compound 0.0316 µM, first compound 0.00316 µM): 101%; viability, T/C (second compound 0.0316 µM, first compound 0.00999 µM): 99.7%; viability, T/C [1]: 104%; viability, T/C (second compound 0.0316 µM, first compound 0.0999 µM): 112%; viability, T/C [2]: 97%; viability, T/C (second compound 0.1 µM, first compound 0.000999 µM): 99.5%; viability, T/C (second compound 0.1 µM, first compound 0.00316 µM): 113%; viability, T/C (second compound 0.1 µM, first compound 0.00999 µM): 104%; viability, T/C [3]: 99.8%; viability, T/C (second compound 0.1 µM, first compound 0.0999 µM): 95%; viability, T/C [4]: 96.6%; viability, T/C (second compound 0.316 µM, first compound 0.000999 µM): 98.2%; viability, T/C (second compound 0.316 µM, first compound 0.00316 µM): 92.2%; viability, T/C (second compound 0.316 µM, first compound 0.00999 µM): 108%; viability, T/C [5]: 111%; viability, T/C (second compound 0.316 µM, first compound 0.0999 µM): 102%; viability, T/C [6]: 106%; viability, T/C (second compound 1 µM, first compound 0.000999 µM): 100%; viability, T/C (second compound 1 µM, first compound 0.00316 µM): 91.9%; viability, T/C (second compound 1 µM, first compound 0.00999 µM): 104%; viability, T/C [7]: 103%; viability, T/C (second compound 1 µM, first compound 0.0999 µM): 98.1%; viability, T/C [8]: 87.7%; viability, T/C (second compound 3.16 µM, first compound 0.000999 µM): 103%; viability, T/C (second compound 3.16 µM, first compound 0.00316 µM): 92.2%; viability, T/C (second compound 3.16 µM, first compound 0.00999 µM): 94.2%; viability, T/C [9]: 101%; viability, T/C (second compound 3.16 µM, first compound 0.0999 µM): 90.5%; viability, T/C [10]: 95.4%; viability, T/C (second compound 10 µM, first compound 0.000999 µM): 94.4%; viability, T/C (second compound 10 µM, first compound 0.00316 µM): 77.8%; viability, T/C (second compound 10 µM, first compound 0.00999 µM): 91.9%; viability, T/C [11]: 89%; viability, T/C (second compound 10 µM, first compound 0.0999 µM): 90.9%; viability, T/C [12]: 86.7%

Question: With `Nc1ccn(C2OC(CO)C(O)C2(F)F)c(=O)n1` (stereo unspecified) + CN(C)c1ccc(Nc2c3ccc(NC(=O)CCN4CCCC4)cc3nc3cc(NC(=O)CCN4CCCC4)ccc23)cc1 as the compound, how does the IC50 (second compound 0.0316 µM) read?
Answer: < 31.6 nM

Question: And the IC50 (second compound 0.1 µM)?
Answer: < 31.6 nM

Question: And the IC50 (second compound 0.316 µM)?
Answer: < 31.6 nM

Question: And the IC50 (second compound 1 µM)?
Answer: < 31.6 nM

Question: And the IC50 (second compound 3.16 µM)?
Answer: < 31.6 nM

Question: And the IC50 (second compound 10 µM)?
Answer: < 31.6 nM

Question: What about the viability, T/C [1] of the same compound?
Answer: 39.4%

Question: What about the viability, T/C [13] of the same compound?
Answer: 18.3%

Question: What about the viability, T/C [2] of the same compound?
Answer: 11.6%

Question: And the viability, T/C [14]?
Answer: 9.94%

Question: And the viability, T/C [15]?
Answer: 10.2%

Question: What about the viability, T/C [16] of the same compound?
Answer: 11.1%

Question: And the viability, T/C [3]?
Answer: 39.2%

Question: What about the viability, T/C [17] of the same compound?
Answer: 14.7%

Question: What about the viability, T/C [4] of the same compound?
Answer: 12%

Question: And the viability, T/C [18]?
Answer: 9.37%

Question: What about the viability, T/C [19] of the same compound?
Answer: 10.9%

Question: What about the viability, T/C [20] of the same compound?
Answer: 8.91%

Question: What about the viability, T/C [5] of the same compound?
Answer: 43.8%

Question: And the viability, T/C [21]?
Answer: 20.2%

Question: And the viability, T/C [6]?
Answer: 11.3%

Question: What about the viability, T/C [22] of the same compound?
Answer: 7.36%

Question: And the viability, T/C [23]?
Answer: 8.69%

Question: What about the viability, T/C [24] of the same compound?
Answer: 10.9%

Question: What about the viability, T/C [7] of the same compound?
Answer: 34.6%

Question: And the viability, T/C [25]?
Answer: 19.2%

Question: And the viability, T/C [8]?
Answer: 9.69%

Question: And the viability, T/C [26]?
Answer: 9.64%

Question: And the viability, T/C [27]?
Answer: 11.7%

Question: And the viability, T/C [28]?
Answer: 14.1%

Question: And the viability, T/C [9]?
Answer: 45.3%

Question: What about the viability, T/C [29] of the same compound?
Answer: 26%

Question: And the viability, T/C [10]?
Answer: 12.3%

Question: And the viability, T/C [30]?
Answer: 8.37%

Question: And the viability, T/C [31]?
Answer: 11.2%

Question: What about the viability, T/C [32] of the same compound?
Answer: 9.17%

Question: What about the viability, T/C [11] of the same compound?
Answer: 30.2%

Question: What about the viability, T/C [33] of the same compound?
Answer: 19.6%

Question: What about the viability, T/C [12] of the same compound?
Answer: 7.93%

Question: What about the viability, T/C [34] of the same compound?
Answer: 6.14%

Question: And the viability, T/C [35]?
Answer: 8.89%

Question: What about the viability, T/C [36] of the same compound?
Answer: 8.2%

Question: Which IC50 (second compound 0.0316 µM) does the source give for `O=c1[nH]cc(F)c(=O)[nH]1` + CN(C)c1ccc(Nc2c3ccc(NC(=O)CCN4CCCC4)cc3nc3cc(NC(=O)CCN4CCCC4)ccc23)cc1 here?
Answer: 663 nM

Question: What about the IC50 (second compound 0.1 µM) of the same compound?
Answer: 505 nM

Question: And the IC50 (second compound 0.316 µM)?
Answer: 455 nM

Question: What about the IC50 (second compound 1 µM) of the same compound?
Answer: 562 nM

Question: What about the IC50 (second compound 3.16 µM) of the same compound?
Answer: 383 nM

Question: What about the IC50 (second compound 10 µM) of the same compound?
Answer: 373 nM

Question: What about the viability, T/C [1] of the same compound?
Answer: 98.4%

Question: What about the viability, T/C [13] of the same compound?
Answer: 89.3%

Question: What about the viability, T/C [2] of the same compound?
Answer: 66.6%

Question: What about the viability, T/C [14] of the same compound?
Answer: 39.8%

Question: And the viability, T/C [15]?
Answer: 36.4%

Question: And the viability, T/C [16]?
Answer: 32.8%

Question: What about the viability, T/C [3] of the same compound?
Answer: 95.3%

Question: And the viability, T/C [17]?
Answer: 94.3%

Question: What about the viability, T/C [4] of the same compound?
Answer: 58.8%

Question: What about the viability, T/C [18] of the same compound?
Answer: 38%

Question: What about the viability, T/C [19] of the same compound?
Answer: 38.1%

Question: And the viability, T/C [20]?
Answer: 33.9%

Question: And the viability, T/C [5]?
Answer: 93.9%

Question: What about the viability, T/C [21] of the same compound?
Answer: 81.2%

Question: What about the viability, T/C [6] of the same compound?
Answer: 54.5%

Question: And the viability, T/C [22]?
Answer: 39.6%

Question: What about the viability, T/C [23] of the same compound?
Answer: 36.7%

Question: And the viability, T/C [24]?
Answer: 32.8%

Question: And the viability, T/C [7]?
Answer: 101%

Question: And the viability, T/C [25]?
Answer: 86.4%

Question: And the viability, T/C [8]?
Answer: 59.2%

Question: What about the viability, T/C [26] of the same compound?
Answer: 41.6%

Question: And the viability, T/C [27]?
Answer: 31.2%

Question: What about the viability, T/C [28] of the same compound?
Answer: 33.6%

Question: And the viability, T/C [9]?
Answer: 84.5%

Question: And the viability, T/C [29]?
Answer: 83.8%

Question: And the viability, T/C [10]?
Answer: 52.5%

Question: And the viability, T/C [30]?
Answer: 38%

Question: And the viability, T/C [31]?
Answer: 32%

Question: And the viability, T/C [32]?
Answer: 34%

Question: What about the viability, T/C [11] of the same compound?
Answer: 87.6%

Question: And the viability, T/C [33]?
Answer: 71.3%

Question: And the viability, T/C [12]?
Answer: 52.4%

Question: What about the viability, T/C [34] of the same compound?
Answer: 38.9%

Question: What about the viability, T/C [35] of the same compound?
Answer: 38.3%

Question: And the viability, T/C [36]?
Answer: 35.5%
